Data: patent publication US10065990B2, “Cyclic peptide compound, and preparation method, pharmaceutical composition and use thereof” (HANGZHOU GUANYU BIO-MEDICAL CO., LTD, priority 2013, dated 2018)
Where two headings read alike, the source gives them in different places.

What was measured:
[1] = tested on: MOLT-4 (human acute lymphoblastic leukemia cells); assay: MTT cancer cell growth inhibition; format: cell-based; settings: Homo sapiens, MOLT-4, 72 h, MTT, 72 hours incubation, read-out: GI50 Mol
Excerpt: (§1) MTT assay principle is yellow MTT can penetrate membrane into the cell, succinic dehydrogenase of the mitochondria in living cells can make exogenous MTT reduction of insoluble in water of blue-violet acicular formazan for crystallization and deposition in the cell, crystallization can be dissolved dimethyl sulfoxide (DMSO) solution, detected its absorbance at 490 nm/570 nm wavelength by enzyme-linked immunosorbent assay, which can reflect the number of cells.
(§2) Using DMEM+10% FBS culture medium or using 1640+10% FBS culture, respectively.
(§3) a) Cells were seeded in 96-well plates with the inoculation of 1500/well, 190 μl/hole, 37° C., 5% of CO2 incubator overnight;
(§4) b) The next day each well was added 10 μl of different drugs. The final concentration of drug was 10^−5˜10^−10M, three parallel holes; 37° C., 5% CO2 culture incubator for 72 hours incubation;
(§5) c) Per well was added 20 μl 5 mg/ml of MTT, 37° C., 5% CO2 culture incubator for 4 hours incubation;
(§6) d) The supernatant was discarded. Each well was added 100 μl of DMSO and oscillation;
(§7) e) 570 nm readings. Calculate cell viability. GI50 calculation based on the results.

[2] = tested on: KBM-5 (human chronic myelogenous leukemia); assay: MTT cancer cell growth inhibition; format: cell-based; settings: Homo sapiens, KBM5, 72 h, MTT, 72 hours incubation, KBM-5 cells; read-out: GI50 KBM-5
Excerpt: as §1, §2, §3, §4, §5, §6, §7

[3] = tested on: SGC-7901 (human gastric cancer cells); assay: MTT cancer cell growth inhibition; format: cell-based; settings: Homo sapiens, SGC-7901, 72 h, MTT, 72 hours incubation, SGC-7901 cells; read-out: GI50 SGC-7901
Excerpt: as §1, §2, §3, §4, §5, §6, §7

[4] = tested on: lncap (prostate cancer cells); assay: MTT cancer cell growth inhibition; format: cell-based; settings: Homo sapiens, LNCaP, 72 h, MTT, 72 hours incubation, read-out: GI50 lnca
Excerpt: as §1, §2, §3, §4, §5, §6, §7

[5] = tested on: HCC827 (human non-small cell lung cancer cells); assay: MTT cancer cell growth inhibition; format: cell-based; settings: Homo sapiens, HCC827, 72 h, MTT, 72 hours incubation, HCC827 cells; read-out: GI50 HCC827
Excerpt: as §1, §2, §3, §4, §5, §6, §7

[6] = tested on: K562 (human leukemia cells); assay: MTT cancer cell growth inhibition; format: cell-based; settings: Homo sapiens, K562, 72 h, MTT, 72 hours incubation, K562 cells; read-out: GI50 K562
Excerpt: as §1, §2, §3, §4, §5, §6, §7

[7] = tested on: HT1080 (human fibrosarcoma cells); assay: MTT cancer cell growth inhibition; format: cell-based; settings: Homo sapiens, HT-1080, 72 h, MTT, 72 hours incubation, read-out: GI50 HT1
Excerpt: as §1, §2, §3, §4, §5, §6, §7

[8] = tested on: H1975 (non-small cell lung adenocarcinoma); assay: MTT cancer cell growth inhibition; format: cell-based; settings: Homo sapiens, NCI-H1975, 72 h, MTT, 72 hours incubation, H1975 cells; read-out: GI50 H1975
Excerpt: as §1, §2, §3, §4, §5, §6, §7

[9] = tested on: Bel-7402 (human hepatoma cells); assay: MTT cancer cell growth inhibition; format: cell-based; settings: Homo sapiens, Bel-7402, 72 h, MTT, 72 hours incubation, Bel-7402 cells; read-out: GI50 Bel-7402
Excerpt: as §1, §2, §3, §4, §5, §6, §7

[10] = tested on: MDA-MB-231 (breast cancer cells); assay: MTT cancer cell growth inhibition; format: cell-based; settings: Homo sapiens, MDA-MB-231, 72 h, read-out: GI50 MDA-MB-231, MTT, 72 hours incubation, MDA-MB-231 cells
Excerpt: as §1, §2, §3, §4, §5, §6, §7

[11] = tested on: MCF-7 (human breast cancer cells); assay: MTT cancer cell growth inhibition; format: cell-based; settings: Homo sapiens, MCF7, 72 h, 72 hours incubation, read-out: GI50 MCF
Excerpt: as §1, §2, §3, §4, §5, §6, §7

[12] = tested on: Huh-7 (human hepatoma cells); assay: MTT cancer cell growth inhibition; format: cell-based; settings: Homo sapiens, Huh-7, 72 h, MTT, 72 hours incubation, Huh-7 cells; read-out: GI50 Huh-7
Excerpt: as §1, §2, §3, §4, §5, §6, §7

[13] = tested on: BGC-823 (human gastric cancer cells); assay: MTT cancer cell growth inhibition; format: cell-based; settings: Homo sapiens, BGC-823, 72 h, MTT, 72 hours incubation, read-out: GI50 BG
Excerpt: as §1, §2, §3, §4, §5, §6, §7

[14] = tested on: DU145 (human prostate cancer cells); assay: MTT cancer cell growth inhibition; format: cell-based; settings: Homo sapiens, DU-145, 72 h, MTT, 72 hours incubation, read-out: GI50 Du1
Excerpt: as §1, §2, §3, §4, §5, §6, §7

[15] = tested on: Hela (human cervical cancer cells); assay: MTT cancer cell growth inhibition; format: cell-based; settings: Homo sapiens, HeLa, 72 h, MTT, 72 hours incubation, read-out: GI50 Hela
Excerpt: as §1, §2, §3, §4, §5, §6, §7

[16] = tested on: KBM5-T315I (human chronic myelogenous leukemia); assay: MTT cancer cell growth inhibition; format: cell-based; settings: Homo sapiens, 72 h, MTT, 72 hours incubation, KBM5-T315I cells; read-out: GI50 KBM5-T315I
Excerpt: as §1, §2, §3, §4, §5, §6, §7

[17] = tested on: N-87 (human gastric cancer cells); assay: MTT cancer cell growth inhibition; format: cell-based; settings: Homo sapiens, 72 h, MTT, 72 hours incubation, N-87 cells; read-out: GI50 N-87
Excerpt: as §1, §2, §3, §4, §5, §6, §7

[18] = tested on: U937 (human leukemia cells); assay: MTT cancer cell growth inhibition; format: cell-based; settings: Homo sapiens, U-937, 72 h, MTT, 72 hours incubation, read-out: GI50 U93
Excerpt: as §1, §2, §3, §4, §5, §6, §7

[19] = tested on: PANC-1 (Pac-1, human pancreatic cancer cells); assay: MTT cancer cell growth inhibition; format: cell-based; settings: Homo sapiens, PANC-1, 72 h, MTT, 72 hours incubation, read-out: GI50 PAN
Excerpt: as §1, §2, §3, §4, §5, §6, §7

[20] = tested on: A549 (human lung cancer cells); assay: MTT cancer cell growth inhibition; format: cell-based; settings: Homo sapiens, A549, 72 h, MTT, 72 hours incubation, read-out: GI50 A54
Excerpt: as §1, §2, §3, §4, §5, §6, §7

HDAC7 = biological target: T1, HDAC7 (Homo sapiens, UniProt Q8WUI4); assay: HDAC biochemical activity measurement (fluorescent substrate deacetylation);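 note: fluorogenic deacetylation assay using acetyl-lysine substrate at 20 µM, enzyme and compound incubated 30 min at 37 °C, then developer added, fluorescence read at 360/460 nm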; settings: HDAC7; 37° C. 30 minutes
T1 sequence (Q8WUI4 1-952): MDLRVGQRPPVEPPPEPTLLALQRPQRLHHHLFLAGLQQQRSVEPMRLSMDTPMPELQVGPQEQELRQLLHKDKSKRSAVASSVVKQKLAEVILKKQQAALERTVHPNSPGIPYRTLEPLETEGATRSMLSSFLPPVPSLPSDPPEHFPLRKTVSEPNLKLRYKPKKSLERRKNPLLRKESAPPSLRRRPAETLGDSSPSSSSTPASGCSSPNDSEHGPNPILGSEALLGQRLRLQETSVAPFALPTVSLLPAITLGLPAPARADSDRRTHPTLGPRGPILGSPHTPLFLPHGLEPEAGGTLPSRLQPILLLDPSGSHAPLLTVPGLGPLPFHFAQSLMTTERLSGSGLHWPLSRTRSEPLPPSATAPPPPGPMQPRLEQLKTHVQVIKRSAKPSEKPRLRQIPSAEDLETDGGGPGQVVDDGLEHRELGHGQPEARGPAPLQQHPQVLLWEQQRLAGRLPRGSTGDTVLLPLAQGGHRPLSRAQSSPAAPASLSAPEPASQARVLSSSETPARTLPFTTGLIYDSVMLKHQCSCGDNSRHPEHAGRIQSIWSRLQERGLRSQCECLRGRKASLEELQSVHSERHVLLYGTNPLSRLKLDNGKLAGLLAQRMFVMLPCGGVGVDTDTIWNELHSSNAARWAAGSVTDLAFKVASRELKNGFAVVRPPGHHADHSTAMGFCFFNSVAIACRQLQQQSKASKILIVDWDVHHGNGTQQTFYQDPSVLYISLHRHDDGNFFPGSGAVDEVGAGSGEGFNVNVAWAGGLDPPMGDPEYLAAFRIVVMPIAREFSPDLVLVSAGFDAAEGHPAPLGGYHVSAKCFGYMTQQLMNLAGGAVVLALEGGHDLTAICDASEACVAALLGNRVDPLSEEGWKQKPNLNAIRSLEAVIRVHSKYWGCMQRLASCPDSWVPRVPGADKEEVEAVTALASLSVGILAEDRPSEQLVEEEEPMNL

| GI50 [1] [nM] | GI50 [2] [nM] | GI50 [3] [nM] | GI50 [4] [nM] | GI50 [5] [nM] | GI50 [6] [nM] | GI50 [7] [nM] | GI50 [8] [nM] | GI50 [9] [nM] | GI50 [10] [nM] | GI50 [11] [nM] | GI50 [12] [nM] | GI50 [13] [nM] | GI50 [14] [nM] | GI50 [15] [nM] | GI50 [16] [nM] | GI50 [17] [nM] | GI50 [18] [nM] | GI50 [19] [nM] | IC50 HDAC7 (HDAC7) | Structure (SMILES) | further results |
| --- | --- | --- | --- | --- | --- | --- | --- | --- | --- | --- | --- | --- | --- | --- | --- | --- | --- | --- | --- | --- | --- |
| 30 | 72 | 37 | 30 | 65 | 19 | 40 | 73 | 61 | 57 | 20 | 48 | 20 | 20 | 60 | 54 | 27 | 20 | 40 | no activity | C/C=C1\NC(=O)c2nc(F)cc(n2)CNC(=O)C[C@@H](/C=C/CCSC(C)=O)OC(=O)[C@H](C(C)C)NC1=O [Compound 96] | GI50 [20]: 40 nM |
| – | 12 | 39 | – | 16 | 38 | – | 52 | 82 | 39 | – | 42 | – | – | – | 32 | 23 | – | – | no activity | C/C=C1\NC(=O)c2ccc(SC)c(n2)CNC(=O)C[C@@H](/C=C/CCS)OC(=O)[C@H](C)NC1=O [Compound 234] | GI50 ([1]; MOLT-4 cells): 30 nM; GI50 ([4]; lncap cells): 20 nM; GI50 ([7]; HT1080 cells): 10 nM; GI50 ([11]; MCF-7 cells): 30 nM; GI50 ([13]; BGC-823 cells): 80 nM; GI50 ([14]; DU145 cells): 50 nM; GI50 ([15]; Hela cells): 60 nM; GI50 ([18]; U937 cells): 20 nM; GI50 ([19]; PANC-1 cells): 30 nM; GI50 ([20]; A549 cells): 20 nM |
| 90 | 41 | 81 | 20 | 38 | 79 | 50 | 33 | 49 | 29 | 20 | 51 | 100 | 60 | 130 | 37 | 33 | 70 | 30 | no activity | C/C=C1\NC(=O)c2ccc(F)c(n2)CNC(=O)C[C@@H](/C=C/CCS)OC(=O)[C@H](Cc2cccc3ccccc23)NC1=O [Compound 126] | GI50 [20]: 30 nM |
| 30 | 53 | 15 | 30 | 49 | 26 | 40 | 61 | 49 | 39 | 20 | 39 | 20 | 20 | 50 | 25 | 27 | 60 | 40 | no activity | C=C1NC(=O)c2cc(F)cc(n2)CNC(=O)C[C@@H](/C=C/CCSC(C)=O)OC(=O)[C@H](C(C)C)NC1=O [Compound 85] | GI50 [20]: 10 nM |
| – | 29 | 35 | – | 13 | 49 | – | 97 | 48 | 56 | – | 17 | – | – | – | 57 | 62 | – | – | no activity | C/C=C1\NC(=O)c2nc(ccc2SC)CNC(=O)C[C@@H](/C=C/CCSC(=O)CCCCCCC)OC(=O)[C@H](C)NC1=O [Compound 180] | GI50 ([1]; MOLT-4 cells): 50 nM; GI50 ([4]; lncap cells): 20 nM; GI50 ([7]; HT1080 cells): 50 nM; GI50 ([11]; MCF-7 cells): 20 nM; GI50 ([13]; BGC-823 cells): 50 nM; GI50 ([14]; DU145 cells): 60 nM; GI50 ([15]; Hela cells): 100 nM; GI50 ([18]; U937 cells): 70 nM; GI50 ([19]; PANC-1 cells): 30 nM; GI50 ([20]; A549 cells): 30 nM |
| – | 18 | 71 | – | 29 | 36 | – | 53 | 42 | 23 | – | 79 | – | – | – | 36 | 28 | – | – | no activity | C/C=C1\NC(=O)c2ccc(SC)c(n2)CNC(=O)C[C@@H](/C=C/CCSC(C)=O)OC(=O)[C@H](Cc2ccccc2)NC1=O [Compound 188] | GI50 ([1]; MOLT-4 cells): 30 nM; GI50 ([4]; lncap cells): 60 nM; GI50 ([7]; HT1080 cells): 80 nM; GI50 ([11]; MCF-7 cells): 30 nM; GI50 ([13]; BGC-823 cells): 30 nM; GI50 ([14]; DU145 cells): 30 nM; GI50 ([15]; Hela cells): 50 nM; GI50 ([18]; U937 cells): 40 nM; GI50 ([19]; PANC-1 cells): 50 nM; GI50 ([20]; A549 cells): 20 nM |
